Test results published in patent publication US20250019382A1, “NOVEL INHIBITORS OF CYCLIN-DEPENDENT KINASES” (Origenis Gmbh, priority 2021, published 2025).

What was measured:
[1] = biological target: T1, CDK9/CyclinT1 (Homo sapiens, UniProt P50750); experiment: CDK9/T1 ADPGlo kinase assay; format: biochemical; conditions: CDK9/CyclinT1 6 nM, ATP 10 microM, PDKtide 40 microM, 120 min RT
T1 construct: purchased ProQinase/Reaction Biology, USA #0371-0345-1
Procedure, shortened: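 Human CDK9/CyclinT1 (6 nM final) was preincubated 10 min with compound (12-point 1:3 series from 5 μM), then reacted 120 min at RT with PDKtide (40 μM final) and ATP (10 μM final). ADP was read by ADP-Glo luminescence; IC50 from variable-slope sigmoidal fit.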

[2] = biological target: T2, CDK2/cyclin A (Homo sapiens, UniProt P24941); experiment: CDK2/cyclin A Z'-LYTE (SelectScreen); format: biochemical; conditions: duplicate, averaged
T2 construct: purchased Invitrogen Ltd., Paisley, UK (SelectScreen service)
Method: (§1) The CDK2 inhibitory activity of the compounds of the invention was measured in combination with different […] and assay systems. The SelectScreen™ assessment of the kinase inhibitory activity of CDK2 data point was performed in duplicate and averaged data is reported here. The SelectScreen™ kinase inhibitor assay service was used (Invitrogen Ltd., Paisley, UK) to investigate the ability of the compounds of the invention to inhibit CDK2 in dose dependent manner using ten inhibitor concentrations from 10 micromolar down to […] in half-logarithmic steps. The inhibitor concentration was plotted against the percent inhibition or displacement to determine the IC50 using XLFit 5.5 (IDBS, Guildford) to fit to a sigmoidal dose response curve with a variable slope.

[3] = biological target: T3, CDK2/cyclin A1 (Homo sapiens, UniProt P24941); experiment: CDK2/cyclin A1 LanthaScreen (SelectScreen), second list; format: binding; conditions: second list under the same heading; duplicate, averaged
T3 construct: purchased Invitrogen Ltd., Paisley, UK (SelectScreen service)
Method: as §1

[4] = biological target: T3, CDK2/cyclin A1; experiment: CDK2/cyclin A1 LanthaScreen (SelectScreen); format: binding; conditions: first list; duplicate, averaged
Method: as §1

[5] = biological target: T4, CDK2/cyclin E1 (Homo sapiens, UniProt P24941); experiment: CDK2/cyclin E1 LanthaScreen (SelectScreen); format: binding; conditions: duplicate, averaged
T4 construct: purchased Invitrogen Ltd., Paisley, UK (SelectScreen service)
Method: as §1

T1 sequence (P50750 whole entry): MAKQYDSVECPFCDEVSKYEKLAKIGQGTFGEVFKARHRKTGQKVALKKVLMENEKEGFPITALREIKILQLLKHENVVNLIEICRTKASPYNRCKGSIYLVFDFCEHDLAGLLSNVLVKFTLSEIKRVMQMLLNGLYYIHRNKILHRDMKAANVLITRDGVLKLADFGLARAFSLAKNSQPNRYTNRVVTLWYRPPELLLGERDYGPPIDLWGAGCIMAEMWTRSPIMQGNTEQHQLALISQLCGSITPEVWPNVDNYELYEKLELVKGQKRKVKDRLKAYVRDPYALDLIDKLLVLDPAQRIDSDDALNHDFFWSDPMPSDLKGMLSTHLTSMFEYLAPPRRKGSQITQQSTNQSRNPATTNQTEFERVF
T1 sequence (O60563 whole entry partner): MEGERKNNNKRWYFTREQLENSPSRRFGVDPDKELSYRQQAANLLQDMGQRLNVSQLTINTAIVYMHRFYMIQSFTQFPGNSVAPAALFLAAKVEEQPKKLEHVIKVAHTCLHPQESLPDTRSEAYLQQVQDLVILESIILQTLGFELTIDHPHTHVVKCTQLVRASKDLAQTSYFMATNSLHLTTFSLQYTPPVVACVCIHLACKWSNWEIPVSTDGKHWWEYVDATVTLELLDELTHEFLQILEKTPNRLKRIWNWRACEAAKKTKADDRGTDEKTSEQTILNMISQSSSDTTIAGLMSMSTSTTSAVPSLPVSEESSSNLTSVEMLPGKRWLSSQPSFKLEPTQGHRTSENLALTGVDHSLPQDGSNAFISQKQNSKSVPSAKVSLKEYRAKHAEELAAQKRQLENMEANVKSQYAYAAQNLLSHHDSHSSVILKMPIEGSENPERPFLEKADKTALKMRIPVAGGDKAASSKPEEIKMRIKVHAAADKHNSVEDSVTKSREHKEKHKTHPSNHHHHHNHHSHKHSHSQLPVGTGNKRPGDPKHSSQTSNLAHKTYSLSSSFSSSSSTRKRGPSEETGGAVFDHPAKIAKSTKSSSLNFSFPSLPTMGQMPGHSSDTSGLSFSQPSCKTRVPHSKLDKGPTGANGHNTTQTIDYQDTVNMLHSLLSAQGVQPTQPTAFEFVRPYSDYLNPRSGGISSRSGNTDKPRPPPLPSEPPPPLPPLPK

IC50 [1] [nM]	IC50 [2] [nM]	IC50 [3] [nM]	IC50 [4] [nM]	IC50 [5] [nM]	SMILES
< 20	< 1000	< 200	< 200	< 200	FCCCN[C@H]1CC[C@H](Nc2nc(-c3c(F)cccc3F)nc3c(Cl)cnn23)CC1 [Example #128, (1r,4r)-N1-(8-chloro-2-(2,6-difluorophenyl)pyrazolo[1,5-a][1,3,5]triazin-4-yl)-N4-(3-fluoropropyl)cyclohexane-1,4-diamine]
< 20	< 1000	< 200	< 1000	< 200	CN(C)[C@H]1CC[C@H](Nc2nc(-c3c(F)cccc3F)nc3c(Cl)cnn23)CC1 [Example #109, (1r,4r)-N1-(8-chloro-2-(2,6-difluorophenyl)pyrazolo[1,5-a][1,3,5]triazin-4-yl)-N4,N4-dimethylcyclohexane-1,4-diamine]
< 20	< 200	< 200	< 200	< 200	FCCN[C@H]1CC[C@H](Nc2nc(-c3c(F)cccc3F)nc3c(Cl)cnn23)CC1 [Example #126, (1r,4r)-N1-(8-chloro-2-(2,6-difluorophenyl)pyrazolo[1,5-a][1,3,5]triazin-4-yl)-N4-(2-fluoroethyl)cyclohexane-1,4-diamine]
< 20	< 200	< 20	< 200	< 200	N[C@H]1CC[C@H](Nc2nc(-c3c(F)cccc3F)nc3c(Cl)cnn23)CC1 [Example #108, (1r,4r)-N1-(8-chloro-2-(2,6-difluorophenyl)pyrazolo[1,5-a][1,3,5]triazin-4-yl)cyclohexane-1,4-diamine]
